Data reported in BindingDB's records for doi:10.1016/0960-894X(95)00111-6 (1995).

Experiment: Tested for competitive inhibitory activity against beta-Glucosidase

| Compound | Ki [mM] |
| --- | --- |
| COC1OC(CO)C(Sc2nc(CN(C)C)ccc2O)C(O)C1O (stereo unspecified) [5-(6-Dimethylaminomethyl-3-hydroxy-pyridin-2-ylsulfanyl)-6-hydroxymethyl-2-methoxy-tetrahydro-pyran-3,4-diol] | 20 |
| COC1OC(CO)C(Sc2nc(CO)ccc2O)C(O)C1O (stereo unspecified) [5-(3-Hydroxy-6-hydroxymethyl-pyridin-2-ylsulfanyl)-6-hydroxymethyl-2-methoxy-tetrahydro-pyran-3,4-diol] | 4 |
| CO[C@@H]1O[C@@H](CO)[C@@H](Oc2cccnc2S[C@H]2[C@H](O)[C@H](O)[C@H](OC)O[C@H]2CO)[C@H](O)[C@@H]1O | 5.5 |

Now from value to molecule:

| Ki [mM] | Compound |
| --- | --- |
| 8 | COC1OC(CO)C(Sc2ccccn2)C(O)C1O (stereo unspecified) [6-Hydroxymethyl-2-methoxy-5-(pyridin-2-ylsulfanyl)-tetrahydro-pyran-3,4-diol] |
| 4.5 | COC1OC(CO)C(Sc2nc(C)ccc2O)C(O)C1O (stereo unspecified) [6-Hydroxymethyl-5-(3-hydroxy-6-methyl-pyridin-2-ylsulfanyl)-2-methoxy-tetrahydro-pyran-3,4-diol] |
| 0.8 | COC1OC(CO)C(Sc2ncccc2O)C(O)C1O (stereo unspecified) [6-Hydroxymethyl-5-(3-hydroxy-pyridin-2-ylsulfanyl)-2-methoxy-tetrahydro-pyran-3,4-diol] |
